Where a name gives a salt, the structure may show the parent alone. Read-outs that look alike come from different tables or passages of the source.

The subject of test [1] is histamine aerosol induced bronchoconstriction. Description: Bronchodilator Activity (protection of conscious guinea pigs against histamine aerosol). The format is in vivo. The conditions noted are these: for inhibition in vivo at 60 mg/kg: Cavia porcellus, 1 h, read-out: % Protection. The procedure: Subsequent to this administration, each animal is challenged with histamine aerosol. […] Immediately after the container is subjected to the histamine spray the animal is placed within it. At the end of one minute of exposure, the respiratory status, which is a reflection of bronchoconstriction, is evaluated. Evaluation levels are designated and scored as normal breathing (0), slight deepened breathing (1), labored breathing (2), severely labored breathing and […] (3) and unconsciousness (4). Each group of animals contains 8 to 10 individual and a control group containing the same approximate number is used. […] The dose, which is given orally, is 60 mg./kg. and the animals are challenged with histamine 60 minutes later.

The subject of test [2] is collagen induced platelet aggregation. Kind of test: In Vitro Inhibition of Platelet Aggregation (collagen induced, rabbit platelet-rich plasma). The format is cell-based. The note with it: Oryctolagus cuniculus, 10 min; for inhibition at 600 µM: 6 × 10^^-4 mol./l.; for inhibition at 60 µM: 6 × 10^^-5 mol./l.; for inhibition at 6 µM: 6 × 10^^-6 mol./l. As to the method:
The ability of the compounds of the present invention to inhibit platelet aggregation in vitro is measured according to the method of Born, et al., J. Physiol., 168, 178 (1963) and comprises the following procedure: Anesthetized male rabbits are bled from a carotid artery into plastic centrifuge tubes containing 0.1 volume 3% sodium citrate. Platelet-rich plasma is separated by centrifugation at 100 G for 10 minutes at 20° C. […] After 10 minutes of incubation with the platelet-rich plasma at room temperature, collagen, a protein known to cause platelet aggregation, is added (0.27 ml. collagen/4 ml. plasma) and changes in the optical density are followed with a Spectronic 20 colorimeter attached to a Houston Instrument TY Recorder. Platelet aggregation is indicated by a decrease in optical density. The relative potency of the compounds of the present invention are thus rated on their ability to inhibit (percent) collagen induced platelet aggregation.

Test [3] shares this test system. Kind of test: In Vivo Inhibition of Platelet Aggregation (collagen induced aggregation in plasma of dosed dogs). Details: species or system mongrel dogs. The conditions noted are these: 25 mg./kg. P.O. As to the method: The capacity of the compounds of the present invention to inhibit platelet aggregation in a modified in vivo test is measured by the following procedure: Unanesthetized fasted adult mongrel dogs of either sex are dosed orally (P.O.) or intravenously (I.V.) with the particular test compound. Blood samples are taken at hourly intervals and placed in plastic centrifuge tubes containing 0.1 volume 3% sodium citrate. Platelet-rich plasma is separated by centrifugation at 100 G for 10 minutes at 20° C. and treated with a collagen suspension in saline. The effect of two different levels of collagen concentration are examined; the first is a 1:20 dilution, i.e. 1 ml. of collagen suspension per 20 ml. of platelet-rich plasma (high dose), and the second, a 1:40-50 dilution (low dose). Changes in optical density are then followed with a Spectronic 20 colorimeter attached to a Houston Instrument TY Recorder. Platelet aggregation is indicated by a decrease in optical density. […] Measurements are carried out on the hourly samples, allowing for the determination of a duration of the initial effect.

Test [4] shares this test system. Description: In vitro Inhibition of Platelet Aggregation in Human Plasma (collagen induced). The test is classed as cell-based. The conditions noted are these: human platelet-rich plasma. As to the method: Anesthetized male rabbits are bled from a carotid artery into plastic centrifuge tubes containing 0.1 volume 3% sodium citrate. Platelet-rich plasma is separated by centrifugation at 100 G for 10 minutes at 20° C. Plasma from 3 animals is pooled; 5 ml. samples are placed into clear plastic curvettes and stirred at 1000 rpm, followed by the addition of compounds of the present invention at levels of 6 × 10^^-4 , 10^^-5 and 10^^-6 moles/liter. After 10 minutes of incubation with the platelet-rich plasma at room temperature, collagen, a protein known to cause platelet aggregation, is added (0.27 ml. collagen/4 ml. plasma) and changes in the optical density are followed with a Spectronic 20 colorimeter attached to a Houston Instrument TY Recorder. Platelet aggregation is indicated by a decrease in optical density. The relative potency of the compounds of the present invention are thus rated on their ability to inhibit (percent) collagen induced platelet aggregation.
The procedure of Example XLV is repeated except that platelet-rich plasma from nine human volunteers is employed in place of rabbit plasma. 4-(Diethylamino)-6-phenylpyrimidine hydrochloride provides the following inhibition (%) of collagen induced platelet aggregation at the indicated concentrations: […]

Where [5] appears, read: 60 mg./kg. oral, histamine challenge 60 minutes later.

For `CCc1c(-c2cccc(NC(C)=O)c2)ncnc1N(CC)CC`, in test [1] (setting [5]), the inhibition in vivo at 60 mg/kg is 35%.
Consider `CCN(CC)c1ncnc(-c2cccc(NC(C)=O)c2)c1C`, for which, in test [1] (setting [5]), the inhibition in vivo at 60 mg/kg was 43%.
Regarding `CCCc1c(-c2cccc(NC(C)=O)c2)ncnc1N(CC)CC`, in test [1] (po), the inhibition in vivo at 60 mg/kg is 29%.
Take `CCc1c(-c2cccc(NC(C)=O)c2)ncnc1N(C)C`: the inhibition in vivo at 60 mg/kg in test [1] (setting [5]) turned out to be 10%.
Still for that read-out and setting: the result for `CCCN(CCC)c1ncnc(-c2cccc(NC(C)=O)c2)c1C` reads 17%.
A word on the inhibition: it is how much of the control response was suppressed. Read a high inhibition as a strong effect. As for `CCN(CC)c1cc(-c2cccc(NS(C)(=O)=O)c2)ncn1`, in test [2], the inhibition at 600 µM worked out at 95%, the inhibition at 60 µM came out at 21% and at 6 µM the inhibition was 9%. In addition, the inhibition in vivo at 60 mg/kg in test [1] (setting [5]) was determined as 19%.
In test [2], `CCCN(CCC)c1cc(-c2cccc(NC(C)=O)c2)ncn1` [4-di-n-propylamino-6-(m-acetylaminophenyl)-pyrimidine] yielded an inhibition at 600 µM of 88%, an inhibition at 60 µM of 29% and an inhibition at 6 µM of 22%. The inhibition in vivo at 60 mg/kg in test [1] (setting [5]) is 30%.
For the compound `CCN(CC)c1cc(-c2cccc(NC(=O)C(C)C)c2)ncn1` [4-diethylamino-6-(m-isobutrylaminophenyl)pyrimidine], in test [1] (po), the inhibition in vivo at 60 mg/kg turned out to be 22%.
In test [2], `CCC(=O)Nc1cccc(-c2cc(N(CC)CC)ncn2)c1` [4-diethylamino-6-(m-propionylaminophenyl)pyrimidine] gave an inhibition at 600 µM of 99%, an inhibition at 60 µM of 82% and an inhibition at 6 µM of 13%. Also, in test [1] (setting [5]), the inhibition in vivo at 60 mg/kg is 30%.
Regarding `CCN(CC)c1cc(-c2ccco2)ncn1` [Ar=2-furyl; R1=C2H5; R2=C2H5; R3=H, 4-Diethylamino-6-(2-furyl)pyrimidine hydrochloride], the inhibition in vivo at 60 mg/kg in test [1] (setting [5]) turned out to be 15%.
Regarding `CCc1c(-c2ccc3ccccc3c2)ncnc1N(CC)CC` [Ar=2-naphthyl; R1=C2H5; R2=C2H5; R3=C2H5, 4-Diethylamino-5-ethyl-6-(2-naphthyl)pyrimidine hydrochloride], in test [1] (po), the inhibition in vivo at 60 mg/kg is 47%.
In test [2], `CCN(CC)c1cc(-c2cccc(NC(C)=O)c2)ncn1` [Ar=3-CH3CONHC6H4; R1=C2H5; R2=C2H5; R3=H, 4-Diethylamino-6-(m-acetylaminopheny)pyrimidine hydrochloride] registered an inhibition at 60 µM of 16% and an inhibition at 6 µM of 14%. In test [1] (setting [5]), the inhibition in vivo at 60 mg/kg stood at 40%.
In test [2], `CCN(CC)c1cc(-c2cccc([N+](=O)[O-])c2)ncn1` [Ar=3-NO2C6H4; R1=C2H5; R2=C2H5; R3=H, 4-Diethylamino-6-(m-nitrophenyl)pyrimidine hydrochloride] gave an inhibition at 600 µM of 99%, an inhibition at 60 µM of 93% and an inhibition at 6 µM of 25%. Moreover, the inhibition in vivo at 60 mg/kg in test [1] (setting [5]) amounted to 20%.
`CCN(CC)c1cc(-c2ccc(NC(C)=O)cc2)ncn1` [Ar=4-CH3CONHC6H4; R1=C2H5; R2=C2H5; R3=H, 4-diethylamino-6-(p-acetylaminophenyl)pyrimidine]: the inhibition in vivo at 60 mg/kg in test [1] (po) came to 56%.
As to `CCN(CC)c1cc(-c2ccccc2)ncn1.Cl` [Ar=C6H5; R1=C2H5; R2=C2H5; R3=H, 4-Diethylamino-6-phenylpyrimidine hydrochloride], the inhibition at 600 µM in test [2] stood at 99%. The compound further registered an inhibition at 6 µM in test [2] of 99%. This compound also yielded a Duration in test [3] of 5 h. Also, the “Inhibition to Collagen, High” value in test [3] (high collagen (1:20 dilution)) was “Complete (complete (95-100%))”. The “Inhibition to Collagen, Low” value in test [3] (low collagen (1:40-50 dilution)) is reported as “Complete (complete (95-100%))”. Moreover, the “Mean % Inhibition” value in test [4] (6 × 10^^-4 mol./l.) is listed as 73%; in test [4] (6 × 10^^-5 mol./l.) it was 59%; in test [4] (6 × 10^^-6 mol./l.), 52%; in test [4] (6 × 10^^-7 mol./l.), 15%.
Take `CCc1c(O)ncnc1-c1ccccc1` [R3=C2H5, 4-hydroxy-5-ethyl-6-phenylpyrimidine]: the inhibition in vivo at 60 mg/kg in test [1] (setting [5]) was 62%. Besides, in test [1] (guinea pig, in vivo), the “activity as a bronchodilator (in words)” value is on record as “unexpected, outstanding activity as a bronchodilator”.
As for `Cc1c(O)ncnc1-c1ccccc1` [R3=CH3], in test [1] (setting [5]), the inhibition in vivo at 60 mg/kg was 22%.
For the compound `Oc1cc(-c2ccccc2)ncn1` [R3=H, 4-Hydroxy-6-phenylpyrimidine], in test [1] (po), the inhibition in vivo at 60 mg/kg amounted to 12%.
Regarding `CC(C)c1c(O)ncnc1-c1ccccc1` [R3=i-C3H7], the inhibition in vivo at 60 mg/kg in test [1] (po) was determined as 16%.
`CCCc1c(O)ncnc1-c1ccccc1` [R3=n-C3H7]: the inhibition in vivo at 60 mg/kg in test [1] (setting [5]) came out at 25%.
As for `Cn1c(=O)c2[nH]cnc2n(C)c1=O` [theophylline, reference compound], in test [1] (po), the inhibition in vivo at 60 mg/kg was found to be 25%.

(Values after US3950525A, “Relaxation of smooth muscle in a mammal” (Pfizer Inc., priority 1975, dated 1976).)
